pIC50, pKd: −log10 of the molar value.
Key:
HeLa cells = experiment: high throughput microscopy of HeLa cells; assay type: cell-based; settings: single-compound assays
Description: The cellular basis of these phenotypes has not been investigated. No phenotypes consistent with mitotic arrest were observed.

[1] = solubility in yeast medium; assay type: physicochemical; settings: higher concentrations
Ure2p [2] = molecular target: T1, Ure2p (Saccharomyces cerevisiae, UniProt P23202); experiment: surface plasmon resonance (BIAcore 3000) binding to immobilized Ure2p; parameters: species or system yeast; settings: PBS/Tween-20 with 10% DMF, read-out: equilibrium dissociation constant for binding to Ure2p
T1 construct: endogenous in cells; host or cells: yeast strain DB26-3A (MAT-a ura3-52 ade2 PUT1-lacZ)
T1 sequence (P23202 1-354): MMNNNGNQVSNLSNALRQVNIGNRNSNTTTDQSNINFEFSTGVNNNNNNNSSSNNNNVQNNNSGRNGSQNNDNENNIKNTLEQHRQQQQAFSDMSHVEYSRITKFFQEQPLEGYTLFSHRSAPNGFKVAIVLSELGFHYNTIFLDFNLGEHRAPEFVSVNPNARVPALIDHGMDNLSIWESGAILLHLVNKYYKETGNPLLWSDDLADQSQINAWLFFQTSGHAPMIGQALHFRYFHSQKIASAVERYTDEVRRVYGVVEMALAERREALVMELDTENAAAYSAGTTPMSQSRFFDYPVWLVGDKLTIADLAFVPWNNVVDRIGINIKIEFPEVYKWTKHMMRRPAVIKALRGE
Method: (§1) FIG. 24 depicts studies in vivo, dose response and structure-activity relationships of uretupamine. (A) A yeast strain (DB26-3A) growing in YPD medium expressing a PUT1-lacZ reporter was treated with 50 nM rapamycin or with a compound that had been detected to bind to labelled Ure2p on a small-molecule microarray. After 90 min of treatment at 30° C., a standard liquid b-galactosidase assay was performed. Data are expressed in fold Miller units compared with treatment with 50 nM rapamycin for 90 minutes. DB26-3A (MAT-a ura3-52 ade2 PUT1-lacZ) was a gift from M. Brandriss. Vehicle: samples treated with N,N-dimethylformamide (DMF), the vehicle into which library compounds were dissolved (B): Uretupamine A was resynthesized and tested in the b-galactosidase assay by using the PUT1-lacZ reporter at the concentrations indicated for 60 min at 30 C in YPD medium. (C) Compounds derived from the uretupamine A structure were synthesized to explore structure-activity relationships. Listed are b-galactosidase assay results of treatment with each compound at 100 μM (asterisk designates 50 μM) for 60 min at 30 C in YPD medium. Data are in percentage Miller units compared with treating with 50 nM rapamycin for 60 min. […] (D) Binding of uretupamine B to Ure2p was determined by using surface plasmon resonance (BIAcore 3000) to have a dissociation constant of 7.5 μM. […]

Ure2p [3] = molecular target: T1, Ure2p; experiment: PUT1-lacZ reporter β-galactosidase assay; assay type: cell-based; settings: yeast in YPD, 30 °C, 60-90 min; rapamycin 50 nM
Method: as §1

Ure2p-controlled genes = experiment: whole-genome transcription profiling of yeast strains; assay type: cell-based; settings: 100 μM, 30 min
Method: FIG. 25 depicts transcription profiling of treatment with uretupamine. (A) The left microarray corresponds to wild-type cells (PM38) treated with vehicle (DMF) versus wild type (w.t.) cells treated for 30 min with uretupamine A at 100 μM. The right microarray corresponds to ure2Δ cells (PH2) treated with vehicle versus ure2Δ cells treated for 30 min with uretupamine A at 100 μM. Profiles were obtained as described (Hardwick et al. Proc. Natl. Acad. Sci. USA 1999, 96, 14866-14870). At the right are shown specific gene inductions of some URE2-dependent genes from the microarrays. PM38 (MATaleu2-3,112 ura3-52), PM71 (MA4Taleu2-3, 112 ura3-52 gln3Δ5::LEU2), MS221 (MATaura3-52 nil1::hisG), PH2 (MATaleu2-3, 112 ura3-52 ure2Δ12::URA3) were gifts from B. Magasanik and M. Brandriss. (B) The transcription profiles of wild-type cells (PM38), ure2Δ cells (PH2), gln3Δ cells (PM71) and nil1Δ cells (MS221) grown in YPD medium treated for 30 min with 100 μM uretupamine B were obtained. The geometric means of gene inductions of the sets listed are shown. (C) An analysis was performed based on treating individual profiles as high-dimensional vectors and then examining the ratios of their magnitudes as a measure of relative activity (Shamji et al. Curr. Biol. 2000, 10, 1574-1581; Kuruvilla et al. Genome Biol. 2002, 3(3), 0011.1-0011.11).
To determine the precise effects and specificity of uretupamine, whole-genome transcription profiling was used in wild-type cells as well as an otherwise isogenic ure2D strain-a ‘targetless’ strain (Marton et al. Nature Med 1998, 4, 1293-1301). […] The expression of other genes (including GAP1, MEP2, AGP1, BAT2 and DAL5) controlled by Ure2p was essentially unchanged (FIG. 25A,B).

HDAC6 = molecular target: T2, HDAC6 (Homo sapiens, UniProt Q9UBN7); experiment: HDAC assay, [3H]acetate-incorporated histones with immunoprecipitated FLAG-tagged HDAC6 (HDAC6F); assay type: biochemical; parameters: made in house; host or cells: TAg Jurkat cells, transient transfection, anti-FLAG M2 immunoprecipitation; settings: calculated IC50, data in duplicate, at least two experiments; read-out: IC50 against HDAC6
T2 sequence (Q9UBN7 1-1215): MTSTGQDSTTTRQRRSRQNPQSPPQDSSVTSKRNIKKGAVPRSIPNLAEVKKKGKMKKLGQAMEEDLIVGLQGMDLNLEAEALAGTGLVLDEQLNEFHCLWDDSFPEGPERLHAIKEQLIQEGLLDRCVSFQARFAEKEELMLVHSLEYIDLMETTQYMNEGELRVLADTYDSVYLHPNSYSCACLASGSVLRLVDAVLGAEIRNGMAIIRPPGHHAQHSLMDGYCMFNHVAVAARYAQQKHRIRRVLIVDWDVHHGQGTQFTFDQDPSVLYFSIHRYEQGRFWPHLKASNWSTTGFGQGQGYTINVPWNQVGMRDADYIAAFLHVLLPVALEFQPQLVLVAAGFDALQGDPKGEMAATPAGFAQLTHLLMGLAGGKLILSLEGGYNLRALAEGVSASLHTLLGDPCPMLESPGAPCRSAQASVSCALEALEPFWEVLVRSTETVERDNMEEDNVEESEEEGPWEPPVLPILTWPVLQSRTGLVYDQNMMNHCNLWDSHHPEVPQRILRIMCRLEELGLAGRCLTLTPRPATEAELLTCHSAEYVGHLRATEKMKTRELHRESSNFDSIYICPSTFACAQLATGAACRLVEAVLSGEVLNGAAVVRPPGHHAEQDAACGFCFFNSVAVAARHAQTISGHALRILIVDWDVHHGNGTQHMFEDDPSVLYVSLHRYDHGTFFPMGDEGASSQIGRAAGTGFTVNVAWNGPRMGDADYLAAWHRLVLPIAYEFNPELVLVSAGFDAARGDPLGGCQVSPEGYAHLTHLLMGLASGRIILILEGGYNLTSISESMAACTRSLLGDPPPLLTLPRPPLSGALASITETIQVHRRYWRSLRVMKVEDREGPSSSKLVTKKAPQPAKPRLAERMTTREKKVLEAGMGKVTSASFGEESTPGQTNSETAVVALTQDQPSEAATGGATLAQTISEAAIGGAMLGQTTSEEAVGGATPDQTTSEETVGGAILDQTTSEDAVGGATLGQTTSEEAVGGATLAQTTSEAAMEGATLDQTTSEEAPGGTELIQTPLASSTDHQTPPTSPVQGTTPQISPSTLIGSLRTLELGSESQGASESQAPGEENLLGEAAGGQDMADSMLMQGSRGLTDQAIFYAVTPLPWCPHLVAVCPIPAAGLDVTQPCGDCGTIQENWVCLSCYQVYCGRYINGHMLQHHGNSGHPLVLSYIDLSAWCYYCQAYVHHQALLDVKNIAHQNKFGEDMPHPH
Method: (§2) Cell culture and Transfections. TAg-Jurkat cells were transfected by electroporation with 5 μg of FLAG-epitope-tagged pBJ5 constructs (as described in ref. 5c) for expression of recombinant proteins. Cells were harvested 48 h posttransfection.
HDAC assays. […] Compounds were added in DMSO such that final assay concentrations were 1% DMSO. IC50s were calculated using Prism 3.0 software. Curve fitting was done without constraints using the program's Sigmoidal-Dose Response parameters. All data points were acquired in duplicate and IC50s are calculated from the composite results of at least two separate experiments.
Tubulin and MAPs were isolated from bovine brain as described [See http://mitchison.med.harvard.edu/protocols/tubprep.html]. Whole brain and fractions from phosphocellulose chromatography were blotted for HDAC6 and acetylated α-tubulin. Cultured hippocampal neurons from dissociated 1-day old rat brains were transfected with an enhanced green fluorescent protein (EGFP)-actin construct at 4-5 days using the calcium phosphate method [E. N. Star, D. J. Kwiatkowski and V. N. Murthy, Nat. Neurosci. […] K. Miranti and M. E. Greenberg, J. Neurosci. […] Transfected cultures were allowed to grow for at least 48 h before the addition of experimental compounds.
[^3H]Acetate-incorporated histones were isolated from butyrate-treated HeLa cells as described [J. Taunton, C. […] Immunoprecipitates were incubated with acetylated histones and HDAC activity determined by scintillation counting as described [J. Taunton, C. […] TDAC assays were performed with immunoprecipitates using MAP-stabilized microtubules polymerized from MAP-rich tubulin fraction as described [C. […] Reactions were incubated (2 h) at 37° C., then incubated on ice (15 min).

HDAC1 = molecular target: T3, HDAC1 (Homo sapiens, UniProt Q13547); experiment: HDAC assay, [3H]acetate-incorporated histones with immunoprecipitated FLAG-tagged HDAC1; assay type: biochemical; settings: calculated IC50, data in duplicate, at least two experiments; read-out: IC50 against HDAC1
T3 construct: made in house; host or cells: TAg-Jurkat cells, transient transfection, then immunoprecipitation
Method: as §2
HDAC assays. [^3H]Acetate-incorporated histones were isolated from butyrate-treated HeLa cells by hydroxyapatite chromatography (as described in Tong, et al. Nature 1997, 395, 917-921.) Immunoprecipitates were incubated with 1.4 μg (10,000 dpm) histones for 3 h at 37° C. HDAC activity was determined by scintillation counting of the ethyl acetate-soluble [^3H]acetic acid (as described in Taunton, et al., Science 1996, 272, 408-411). Compounds were added in DMSO such that final assay concentrations were 1% DMSO. IC50s were calculated using Prism 3.0 software. Curve fitting was done without constraints using the program's Sigmoidal-Dose Response parameters. All data points were acquired in duplicate and IC50s are calculated from the composite results of at least two separate experiments.

T3 sequence (Q13547 whole entry): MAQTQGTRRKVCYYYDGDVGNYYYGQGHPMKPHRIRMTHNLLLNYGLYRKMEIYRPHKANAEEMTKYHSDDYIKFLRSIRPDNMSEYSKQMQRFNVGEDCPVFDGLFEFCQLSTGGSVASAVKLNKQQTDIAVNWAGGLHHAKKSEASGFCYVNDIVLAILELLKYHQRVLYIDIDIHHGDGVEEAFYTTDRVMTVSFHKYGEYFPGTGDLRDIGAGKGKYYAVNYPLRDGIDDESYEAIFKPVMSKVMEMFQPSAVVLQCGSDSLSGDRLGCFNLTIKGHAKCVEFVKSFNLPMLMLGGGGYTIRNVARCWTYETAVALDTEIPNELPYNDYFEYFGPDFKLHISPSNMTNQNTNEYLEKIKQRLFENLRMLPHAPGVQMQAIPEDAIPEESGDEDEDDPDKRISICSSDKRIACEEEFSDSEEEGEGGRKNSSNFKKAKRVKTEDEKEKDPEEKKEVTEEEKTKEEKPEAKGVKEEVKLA

In the case of `O=S(=O)(NCc1ccc(C2O[C@H](CSc3ccc(O)cc3)C[C@H](c3ccc(CO)cc3)O2)cc1)c1ccccc1` (mixture of isomers) [compound 12, (±)-N-[[4-(4R,6S)-4-[4-(hydroxymethyl)phenyl]-6-[[4-hydroxyphenyl)thio]methyl]-1,3-dioxan-2-yl]phenyl]methyl-benzenesulfonamide], the “phenotype in HeLa cells by microscopy” value (HeLa cells) was “altered actin staining phenotype”.

With `NCc1ccc([C@@H]2O[C@H](CSc3nc(-c4ccccc4)c(-c4ccccc4)o3)[C@@H](c3ccccc3)[C@H](c3ccc(CO)cc3)O2)cc1` (relative stereo) [uretupamine A] the “solubility in yeast medium” value [1] was “poor solubility at higher concentrations in yeast medium”, the pKd (Ure2p [2]) was 4.74 and the “activation of PUT1-lacZ reporter” value (Ure2p [3]) was “gave a concentration dependent dose response that at higher concentrations approached the levels of reporter gene activation induced by rapamycin”. For the same compound, the “gene induction in ure2Δ strain” value (Ure2p-controlled genes) was “little or no effect on either set of genes” and the “gene induction in wild-type cells” value (Ure2p-controlled genes) was “upregulated only a subset of genes”.

In the case of `NCc1ccc([C@@H]2O[C@H](CSc3nc(-c4ccccc4)c(-c4ccccc4)o3)C[C@H](c3ccc(CO)cc3)O2)cc1` (relative stereo) [uretupamine B], the “solubility in yeast medium” value [1] was “more soluble derivative”, the pKd (Ure2p [2]) was 5.12 and the “activation of PUT1-lacZ reporter” value (Ure2p [3]) was “more potent than uretupamine A”. The “gene induction in gln3Δ strain” value (Ure2p-controlled genes) was “deleting GLN3 had little effect on the actions of uretupamine”, the “gene induction in nil1Δ strain” value (Ure2p-controlled genes) was “deleting NIL1 abrogated its actions” and the “gene induction in ure2Δ strain” value (Ure2p-controlled genes) was “little or no effect on either set of genes”. The “gene induction in wild-type cells” value (Ure2p-controlled genes) was “upregulated only a subset of genes”.

In the case of `Cc1ccc(S(=O)(=O)N[C@@H](Cc2ccccc2)C(=O)Nc2cccc(C3O[C@H](CN4CCC(O)(c5ccc(Cl)cc5)CC4)[C@H](C)[C@H](c4ccc(CO)cc4)O3)c2)cc1` (stereo partly shown) [compound 11], the pIC50 (HDAC6) was < 4.30, the pIC50 (HDAC1) was < 4.30 and the “phenotype in HeLa cells by microscopy” value (HeLa cells) was “cell detachment”.
